From ChEMBL document CHEMBL1944528, “Design, synthesis and CoMFA studies of N1-amino acid substituted 2,4,5-triphenyl imidazoline derivatives as p53-MDM2 binding inhibitors” (Bioorg Med Chem, 2012)
pIC50: −log10 of the molar value.

Tests used:
HL-60 = assay: Antiproliferative activity against human HL60 cells after 72 hrs by MTT assay; assay type: functional, cell-based; details: for pIC50: Homo sapiens, HL-60, 72 h, read-out: IC50; for IC50: hl-60
HCT-116 = assay: Antiproliferative activity against human HCT116 cells after 72 hrs by MTT assay; assay type: functional, cell-based; details: for pIC50: Homo sapiens, HCT-116, 72 h, read-out: IC50; for IC50: hct-116
SW-620 = assay: Antiproliferative activity against human SW620 cells after 72 hrs by MTT assay; assay type: functional, cell-based; details: for pIC50: Homo sapiens, SW-620, 72 h, read-out: IC50; for IC50: sw-620
A549 = assay: Antiproliferative activity against human A549 cells after 72 hrs by MTT assay; assay type: functional, cell-based; details: for pIC50: Homo sapiens, A549, 72 h, read-out: IC50; for IC50: a549
PC-3 = assay: Antiproliferative activity against human PC3 cells after 72 hrs by MTT assay; assay type: functional, cell-based; details: for pIC50: Homo sapiens, PC-3, 72 h, read-out: IC50; for IC50: pc-3
[1] = biological target: Tumour suppressor p53/oncoprotein Mdm2 (Homo sapiens, UniProt Q00987); assay: Competitive inhibition of MDM2/P53 interaction after 1 hr by fluorescence polarization assay; assay type: protein assay; details: for pIC50: read-out: IC50
Sequence of Tumour suppressor p53/oncoprotein Mdm2 (P04637 whole entry): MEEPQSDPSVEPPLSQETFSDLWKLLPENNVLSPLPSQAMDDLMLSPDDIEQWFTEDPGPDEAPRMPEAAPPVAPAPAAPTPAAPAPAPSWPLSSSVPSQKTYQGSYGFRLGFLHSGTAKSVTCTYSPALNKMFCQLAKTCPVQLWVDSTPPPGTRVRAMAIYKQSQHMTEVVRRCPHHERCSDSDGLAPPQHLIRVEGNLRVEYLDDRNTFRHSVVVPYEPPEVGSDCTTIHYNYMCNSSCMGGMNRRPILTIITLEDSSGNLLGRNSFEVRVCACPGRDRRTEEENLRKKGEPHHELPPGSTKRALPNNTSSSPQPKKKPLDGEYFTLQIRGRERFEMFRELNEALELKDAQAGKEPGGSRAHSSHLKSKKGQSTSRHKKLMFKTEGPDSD
Sequence of Tumour suppressor p53/oncoprotein Mdm2 (Q00987 whole entry): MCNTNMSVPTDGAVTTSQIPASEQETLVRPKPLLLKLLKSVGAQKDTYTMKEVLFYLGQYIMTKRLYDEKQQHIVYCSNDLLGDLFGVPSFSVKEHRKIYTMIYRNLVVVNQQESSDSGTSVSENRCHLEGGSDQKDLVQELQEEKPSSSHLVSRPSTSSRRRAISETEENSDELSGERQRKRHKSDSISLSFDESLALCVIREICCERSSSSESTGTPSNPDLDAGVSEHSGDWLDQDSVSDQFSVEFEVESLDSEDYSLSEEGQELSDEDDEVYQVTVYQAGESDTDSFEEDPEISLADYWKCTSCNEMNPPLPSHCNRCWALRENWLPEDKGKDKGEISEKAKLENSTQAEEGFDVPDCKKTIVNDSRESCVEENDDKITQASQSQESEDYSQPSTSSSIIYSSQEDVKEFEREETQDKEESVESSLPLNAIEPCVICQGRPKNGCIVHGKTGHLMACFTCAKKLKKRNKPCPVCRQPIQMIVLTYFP

[2] = biological target: Tumour suppressor p53/oncoprotein Mdm2 (Homo sapiens) (UniProt P04637+Q00987); assay: Ratio of nutlin-1 IC50 to compound IC50 for MDM2 expressed in Escherichia coli BL-21 and P53 binding interaction after 1 hr by fluorescence polarization competitive binding assay
Sequence of Tumour suppressor p53/oncoprotein Mdm2 (Homo sapiens) (P04637 whole entry, looked up): as the sequence (P04637 whole entry) above
Sequence of Tumour suppressor p53/oncoprotein Mdm2 (Homo sapiens) (Q00987 whole entry, looked up): as the sequence (Q00987 whole entry) above

Row | Structure (SMILES) | pIC50 (HL-60) | pIC50 (HCT-116) | pIC50 (SW-620) | pIC50 (A549) | pIC50 (PC-3) | pIC50 [1] | IC50 (HL-60) | IC50 (HCT-116) | IC50 (SW-620) | IC50 (A549) | IC50 (PC-3) | IC50 ([1]; read-out: pIC50 (converted)) | Ratio IC50 [2]
1 | COc1ccc(C2=N[C@H](c3ccc(Cl)cc3)[C@H](c3ccc(Cl)cc3)N2C(=O)NCC(=O)N2CCCC2)c(OC(C)C)c1 | 5.21 | 5.40 | 5.54 | 5.50 | 5.23 | 4.99 | – | – | – | – | – | – | –
2 | COc1ccc(C2=N[C@H](c3ccc(Cl)cc3)[C@H](c3ccc(Cl)cc3)N2C(=O)N[C@H](C)C(=O)N2CCN(C)CC2)c(OC(C)C)c1 | 5.50 | 5.43 | 5.56 | 5.53 | 5.17 | 5.22 | – | – | – | – | – | – | –
3 | COc1ccc(C2=NC(c3ccc(Cl)cc3)C(c3ccc(Cl)cc3)N2C(=O)N2CCN(C(C)=O)CC2)c(OC(C)C)c1 (stereo not given) | 4.71 | 4.69 | 4.47 | 4.62 | 4.39 | – | – | – | – | – | – | – | –
4 | COc1ccc(C2=N[C@H](c3ccc(Cl)cc3)[C@H](c3ccc(Cl)cc3)N2C(=O)N[C@H](C)C(=O)O)c(OC(C)C)c1 | 5.17 | 5.23 | 5.04 | 5.78 | 5.25 | 5.49 | – | – | – | – | – | – | –
5 | CCOC(=O)CCCNC(=O)N1C(c2ccc(OC)cc2OC(C)C)=N[C@H](c2ccc(Cl)cc2)[C@@H]1c1ccc(Cl)cc1 | 5.24 | 5.18 | 5.10 | 5.49 | 5.21 | 5.78 | – | – | – | – | – | – | –
6 | COc1ccc(C2=N[C@H](c3ccc(Cl)cc3)[C@H](c3ccc(Cl)cc3)N2C(=O)NCCC(=O)N2CCN(C)CC2)c(OC(C)C)c1 | 5.53 | 5.63 | 5.22 | 5.23 | 5.17 | 5.23 | – | – | – | – | – | – | –
7 | COc1ccc(C2=N[C@H](c3ccc(Cl)cc3)[C@H](c3ccc(Cl)cc3)N2C(=O)N[C@@H](C)C(=O)O)c(OC(C)C)c1 | – | – | – | – | – | 5.47 | Not Active | Not Active | Not Active | Not Active | Not Active | – | –
8 | CCOC(=O)[C@H](C)NC(=O)N1C(c2ccc(OC)cc2OC(C)C)=N[C@H](c2ccc(Cl)cc2)[C@@H]1c1ccc(Cl)cc1 | – | – | – | – | – | 6.08 | Not Active | Not Active | Not Active | Not Active | Not Active | – | –
9 | CCN(CC)C(=O)CCNC(=O)N1C(c2ccc(OC)cc2OC(C)C)=N[C@H](c2ccc(Cl)cc2)[C@@H]1c1ccc(Cl)cc1 | 5.34 | 5.19 | 5.50 | 5.39 | 5.14 | 6.19 | – | – | – | – | – | – | –
10 | CCOC(=O)CCNC(=O)N1C(c2ccc(OC)cc2OC(C)C)=N[C@H](c2ccc(Cl)cc2)[C@@H]1c1ccc(Cl)cc1 | 5.11 | 5.04 | 5.03 | 4.84 | 5.07 | 5.47 | – | – | – | – | – | – | –
11 | COc1ccc(C2=N[C@H](c3ccc(Cl)cc3)[C@H](c3ccc(Cl)cc3)N2C(=O)NCCCC(=O)O)c(OC(C)C)c1 | 5.24 | 5.22 | 5.24 | 6.32 | 5.41 | 5.69 | – | – | – | – | – | – | –
12 | COc1ccc(C2=N[C@H](c3ccc(Cl)cc3)[C@H](c3ccc(Cl)cc3)N2C(=O)N[C@@H](C)C(=O)N2CCN(C)CC2)c(OC(C)C)c1 | – | – | – | – | – | 5.22 | Not Active | Not Active | Not Active | Not Active | Not Active | – | –
13 | COc1ccc(C2=N[C@H](c3ccc(Cl)cc3)[C@H](c3ccc(Cl)cc3)N2C(=O)NCC(=O)N2CCN(C)CC2)c(OC(C)C)c1 | 5.48 | 5.35 | 5.21 | 5.44 | 5.45 | 4.69 | – | – | – | – | – | – | –
14 | COc1ccc(C2=N[C@H](c3ccc(Cl)cc3)[C@H](c3ccc(Cl)cc3)N2C(=O)NCCC(=O)N2CCOCC2)c(OC(C)C)c1 | 5.44 | 5.42 | 5.23 | 5.40 | 5.12 | 5.65 | – | – | – | – | – | – | –
15 | COc1ccc(C2=N[C@H](c3ccc(Cl)cc3)[C@H](c3ccc(Cl)cc3)N2C(=O)NCC(=O)N2CCOCC2)c(OC(C)C)c1 | 5.52 | 5.25 | 5.20 | 4.96 | 5.15 | 5.28 | – | – | – | – | – | 5.75 µM | –
16 | CCOC(=O)[C@@H](C)NC(=O)N1C(c2ccc(OC)cc2OC(C)C)=N[C@H](c2ccc(Cl)cc2)[C@@H]1c1ccc(Cl)cc1 | 5.42 | 5.43 | 5.26 | 6.51 | 5.66 | 6.23 | – | – | – | – | – | – | 8
17 | CCN(CC)C(=O)[C@@H](C)NC(=O)N1C(c2ccc(OC)cc2OC(C)C)=N[C@H](c2ccc(Cl)cc2)[C@@H]1c1ccc(Cl)cc1 | 5.07 | 5.12 | 5.07 | < 4.30 | 4.77 | 5.30 | – | – | – | – | – | – | –
18 | CCOC(=O)CNC(=O)N1C(c2ccc(OC)cc2OC(C)C)=N[C@H](c2ccc(Cl)cc2)[C@@H]1c1ccc(Cl)cc1 | 5.53 | 5.32 | 5.41 | 5.44 | 5.16 | 5.37 | – | – | – | – | – | – | –
19 | COc1ccc(C2=N[C@H](c3ccc(Cl)cc3)[C@H](c3ccc(Cl)cc3)N2C(=O)NCC(=O)N2CCN(C(C)=O)CC2)c(OC(C)C)c1 | 5.26 | 5.19 | 5.09 | 5.47 | 5.15 | 5.27 | – | – | – | – | – | – | –
20 | CCN(CC)C(=O)CNC(=O)N1C(c2ccc(OC)cc2OC(C)C)=N[C@H](c2ccc(Cl)cc2)[C@@H]1c1ccc(Cl)cc1 | 5.22 | 5.29 | 4.91 | 5.36 | 5.23 | 5.03 | – | – | – | – | – | – | –
21 | COc1ccc(C2=N[C@H](c3ccc(Cl)cc3)[C@H](c3ccc(Cl)cc3)N2C(=O)NCC(=O)O)c(OC(C)C)c1 | 5.24 | 5.22 | 5.24 | 6.32 | 5.41 | 5.21 | – | – | – | – | – | – | –
22 | CCN(CC)C(=O)CCCNC(=O)N1C(c2ccc(OC)cc2OC(C)C)=N[C@H](c2ccc(Cl)cc2)[C@@H]1c1ccc(Cl)cc1 | 5.16 | 5.37 | 5.19 | 5.86 | 5.12 | 5.38 | – | – | – | – | – | – | –
23 | CCN(CC)C(=O)[C@H](C)NC(=O)N1C(c2ccc(OC)cc2OC(C)C)=N[C@H](c2ccc(Cl)cc2)[C@@H]1c1ccc(Cl)cc1 | 5.37 | 5.70 | 5.34 | 5.48 | 5.27 | 4.90 | – | – | – | – | – | – | –
24 | COc1ccc(C2=N[C@H](c3ccc(Cl)cc3)[C@H](c3ccc(Cl)cc3)N2C(=O)NCCC(=O)O)c(OC(C)C)c1 | – | – | – | – | – | 5.97 | Not Active | Not Active | Not Active | Not Active | Not Active | – | –
